Data on 21 compounds can be found in ChEMBL document CHEMBL3608217, “Discovery of novel bridged tetrahydronaphthalene derivatives as potent T/L-type calcium channel blockers” (Bioorg Med Chem Lett, 2015).

Data set [1] deals with Heart. As to the kind of experiment: Increase in coronary flow in Wistar rat Langendorff isolated perfused heart. Format: functional, tissue-based.
Data set [2] deals with Voltage-dependent L-type calcium channel subunit alpha-1C (Homo sapiens, UniProt Q13936). As to the kind of experiment: Inhibition of recombinant Cav1.2 channel (unknown origin) expressed in HEK293 cells assessed as effect on calcium flux incubated for 3 mins by FLIPR assay. Format: cell-based.
Voltage-dependent L-type calcium channel subunit alpha-1C, sequence (Q13936 whole entry): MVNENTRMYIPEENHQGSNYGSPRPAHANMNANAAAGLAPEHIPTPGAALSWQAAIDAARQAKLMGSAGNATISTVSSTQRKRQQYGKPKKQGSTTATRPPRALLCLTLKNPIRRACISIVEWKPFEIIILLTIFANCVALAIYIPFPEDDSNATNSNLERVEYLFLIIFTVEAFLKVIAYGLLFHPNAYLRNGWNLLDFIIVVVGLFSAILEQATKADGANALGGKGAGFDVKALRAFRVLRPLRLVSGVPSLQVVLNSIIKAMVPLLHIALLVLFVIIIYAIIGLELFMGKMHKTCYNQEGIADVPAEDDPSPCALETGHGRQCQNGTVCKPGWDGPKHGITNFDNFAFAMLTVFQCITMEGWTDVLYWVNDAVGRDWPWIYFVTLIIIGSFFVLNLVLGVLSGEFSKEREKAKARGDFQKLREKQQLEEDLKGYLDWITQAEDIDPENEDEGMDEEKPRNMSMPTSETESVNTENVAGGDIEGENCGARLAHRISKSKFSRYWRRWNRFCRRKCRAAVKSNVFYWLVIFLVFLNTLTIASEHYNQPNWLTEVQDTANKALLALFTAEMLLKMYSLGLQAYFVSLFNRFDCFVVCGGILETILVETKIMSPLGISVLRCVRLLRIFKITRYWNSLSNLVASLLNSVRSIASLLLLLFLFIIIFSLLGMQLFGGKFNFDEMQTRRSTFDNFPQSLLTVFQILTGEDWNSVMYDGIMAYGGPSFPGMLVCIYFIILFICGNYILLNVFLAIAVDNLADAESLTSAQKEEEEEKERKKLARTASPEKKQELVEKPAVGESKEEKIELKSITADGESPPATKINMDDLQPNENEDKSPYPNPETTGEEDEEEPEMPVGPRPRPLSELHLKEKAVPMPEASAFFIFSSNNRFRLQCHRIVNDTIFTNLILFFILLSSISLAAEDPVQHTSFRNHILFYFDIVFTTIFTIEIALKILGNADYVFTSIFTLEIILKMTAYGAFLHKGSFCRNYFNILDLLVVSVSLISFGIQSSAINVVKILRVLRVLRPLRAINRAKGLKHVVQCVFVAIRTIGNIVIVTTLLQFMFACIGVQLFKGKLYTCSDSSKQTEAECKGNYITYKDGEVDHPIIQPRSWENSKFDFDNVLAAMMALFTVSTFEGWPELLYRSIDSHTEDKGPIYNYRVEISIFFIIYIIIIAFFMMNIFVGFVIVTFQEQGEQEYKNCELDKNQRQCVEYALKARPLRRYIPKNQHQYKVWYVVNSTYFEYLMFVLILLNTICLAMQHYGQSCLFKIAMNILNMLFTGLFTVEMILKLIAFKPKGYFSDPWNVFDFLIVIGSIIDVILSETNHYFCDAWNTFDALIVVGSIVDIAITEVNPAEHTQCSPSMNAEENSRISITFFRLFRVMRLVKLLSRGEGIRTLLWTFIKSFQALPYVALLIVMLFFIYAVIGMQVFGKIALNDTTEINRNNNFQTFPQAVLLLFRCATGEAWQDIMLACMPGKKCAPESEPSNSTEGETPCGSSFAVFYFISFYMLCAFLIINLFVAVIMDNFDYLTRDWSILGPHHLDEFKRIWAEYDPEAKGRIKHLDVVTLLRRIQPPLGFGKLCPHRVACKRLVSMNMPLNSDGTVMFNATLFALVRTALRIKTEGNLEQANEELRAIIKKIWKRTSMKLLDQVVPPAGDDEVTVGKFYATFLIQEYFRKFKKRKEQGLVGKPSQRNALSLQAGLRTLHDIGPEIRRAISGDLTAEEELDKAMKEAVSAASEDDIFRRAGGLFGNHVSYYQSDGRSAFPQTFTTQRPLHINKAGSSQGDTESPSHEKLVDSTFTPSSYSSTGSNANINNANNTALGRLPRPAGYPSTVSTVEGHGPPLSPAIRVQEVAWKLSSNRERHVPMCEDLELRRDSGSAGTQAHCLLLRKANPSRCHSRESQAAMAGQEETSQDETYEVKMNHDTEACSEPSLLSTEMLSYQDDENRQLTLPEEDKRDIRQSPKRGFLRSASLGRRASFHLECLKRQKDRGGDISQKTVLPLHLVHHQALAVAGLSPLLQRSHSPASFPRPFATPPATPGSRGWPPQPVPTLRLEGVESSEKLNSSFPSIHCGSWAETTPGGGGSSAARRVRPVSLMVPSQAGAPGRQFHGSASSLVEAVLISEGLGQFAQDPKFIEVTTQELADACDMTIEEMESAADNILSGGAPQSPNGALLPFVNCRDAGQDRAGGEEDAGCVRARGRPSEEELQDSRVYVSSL
The target of data set [3] is Voltage-dependent T-type calcium channel subunit alpha-1H (Homo sapiens, UniProt O95180). Nature of the data set: Inhibition of recombinant Cav3.2 channel (unknown origin) expressed in HEK293 cells assessed as effect on calcium flux incubated for 3 mins by FLIPR assay. The format is cell-based. On the technique in general: A change in cytosolic calcium serves as a functional read-out for many receptors and channels.
Voltage-dependent T-type calcium channel subunit alpha-1H, sequence (O95180 whole entry): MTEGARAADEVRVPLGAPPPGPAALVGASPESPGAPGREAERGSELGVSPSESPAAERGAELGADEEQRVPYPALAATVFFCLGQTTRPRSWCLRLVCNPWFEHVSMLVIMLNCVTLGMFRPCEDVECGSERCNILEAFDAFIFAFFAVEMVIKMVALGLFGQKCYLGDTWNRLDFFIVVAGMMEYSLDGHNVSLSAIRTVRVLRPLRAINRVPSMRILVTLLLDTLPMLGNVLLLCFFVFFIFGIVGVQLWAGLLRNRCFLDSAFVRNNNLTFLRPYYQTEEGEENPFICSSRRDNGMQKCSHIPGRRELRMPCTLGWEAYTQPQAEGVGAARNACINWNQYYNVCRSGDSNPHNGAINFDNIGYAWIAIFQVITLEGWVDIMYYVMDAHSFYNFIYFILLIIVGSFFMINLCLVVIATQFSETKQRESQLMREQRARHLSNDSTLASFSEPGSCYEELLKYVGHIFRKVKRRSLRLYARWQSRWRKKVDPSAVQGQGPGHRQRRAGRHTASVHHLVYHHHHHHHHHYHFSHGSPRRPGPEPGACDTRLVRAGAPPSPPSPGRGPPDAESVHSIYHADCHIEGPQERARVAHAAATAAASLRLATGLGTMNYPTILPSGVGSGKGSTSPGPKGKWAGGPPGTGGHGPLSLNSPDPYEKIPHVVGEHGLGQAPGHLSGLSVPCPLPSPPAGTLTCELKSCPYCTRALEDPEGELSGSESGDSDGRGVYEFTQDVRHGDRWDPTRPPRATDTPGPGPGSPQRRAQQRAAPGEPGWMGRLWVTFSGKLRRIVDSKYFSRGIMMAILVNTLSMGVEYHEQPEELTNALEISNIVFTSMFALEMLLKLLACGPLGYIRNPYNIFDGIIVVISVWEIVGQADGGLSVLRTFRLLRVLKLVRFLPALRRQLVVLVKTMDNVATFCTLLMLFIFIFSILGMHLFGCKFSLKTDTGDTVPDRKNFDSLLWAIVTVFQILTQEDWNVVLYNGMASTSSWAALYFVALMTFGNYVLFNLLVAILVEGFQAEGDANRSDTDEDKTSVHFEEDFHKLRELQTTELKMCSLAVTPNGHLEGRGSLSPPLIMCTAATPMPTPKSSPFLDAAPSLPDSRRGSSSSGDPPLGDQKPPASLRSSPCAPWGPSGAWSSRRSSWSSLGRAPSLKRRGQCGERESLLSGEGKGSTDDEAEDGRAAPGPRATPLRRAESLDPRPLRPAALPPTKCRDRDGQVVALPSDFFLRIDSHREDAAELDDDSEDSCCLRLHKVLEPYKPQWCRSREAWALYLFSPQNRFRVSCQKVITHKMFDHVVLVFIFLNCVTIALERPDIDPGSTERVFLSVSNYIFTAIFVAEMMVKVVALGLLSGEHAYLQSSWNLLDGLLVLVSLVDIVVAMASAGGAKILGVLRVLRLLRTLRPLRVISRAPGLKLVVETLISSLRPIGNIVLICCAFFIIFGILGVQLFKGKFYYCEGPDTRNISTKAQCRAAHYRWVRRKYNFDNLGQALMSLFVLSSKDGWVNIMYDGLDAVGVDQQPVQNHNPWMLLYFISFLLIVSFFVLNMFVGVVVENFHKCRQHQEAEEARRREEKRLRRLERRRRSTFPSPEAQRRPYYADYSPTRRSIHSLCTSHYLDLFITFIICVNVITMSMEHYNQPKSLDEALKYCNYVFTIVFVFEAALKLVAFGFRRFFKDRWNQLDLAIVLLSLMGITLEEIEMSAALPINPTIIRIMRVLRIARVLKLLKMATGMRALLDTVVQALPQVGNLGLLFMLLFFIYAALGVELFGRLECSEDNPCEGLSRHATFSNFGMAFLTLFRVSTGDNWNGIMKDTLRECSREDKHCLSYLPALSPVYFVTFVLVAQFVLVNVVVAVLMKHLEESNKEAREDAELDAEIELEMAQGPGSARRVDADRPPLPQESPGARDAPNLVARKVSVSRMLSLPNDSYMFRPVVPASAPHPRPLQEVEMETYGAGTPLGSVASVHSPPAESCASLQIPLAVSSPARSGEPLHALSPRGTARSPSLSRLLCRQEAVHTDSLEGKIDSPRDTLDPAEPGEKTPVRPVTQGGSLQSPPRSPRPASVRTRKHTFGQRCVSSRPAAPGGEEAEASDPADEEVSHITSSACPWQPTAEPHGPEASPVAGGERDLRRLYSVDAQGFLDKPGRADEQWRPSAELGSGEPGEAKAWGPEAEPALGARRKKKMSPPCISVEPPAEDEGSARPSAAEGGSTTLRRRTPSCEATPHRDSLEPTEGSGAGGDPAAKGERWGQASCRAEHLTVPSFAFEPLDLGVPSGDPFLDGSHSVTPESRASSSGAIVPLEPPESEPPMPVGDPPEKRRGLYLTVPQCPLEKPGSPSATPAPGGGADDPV

Data set [4] concerns the target T1, Cytochrome P450 3A4 (Homo sapiens, UniProt P08684). As to the kind of experiment: Time dependent inhibition of CYP3A4 in human liver microsomes assessed as reduction in testosterone 6beta-hydroxylation incubated for 60 mins in presence of NADPH generating system by LC-MS/MS method. The format is ADME.
A short description of data set [5]: Clearance in Wistar rat at 10 mg/kg, po or 1 mg/kg, iv. The format is ADME, organism-based. Conditions: in vivo.
Data set [6] is described as follows: Volume of distribution at steady state in Wistar rat at 10 mg/kg, po or 1 mg/kg, iv. Format: ADME, organism-based. Particulars: in vivo, read-out: Vdss.
Data set [7] in a line: Distribution coefficient, log D of the compound at pH 7.4. Format: physicochemical. Particulars: octanol/water.
Data set [8] has as its target Cytochrome P450 2C9 (Homo sapiens, UniProt P11712). As to the kind of experiment: Inhibition of CYP2C9 in human liver microsomes assessed as reduction in diclofenac 4'-hydroxylation by LC-MS/MS method. The format is ADME.
A short description of data set [9]: Solubility in 0.1M HCl. The format is physicochemical.
A short description of data set [10]: Cmax in Wistar rat at 10 mg/kg, po. On the set-up: dose 10 mg/kg, route oral. Conditions: in vivo. The format is ADME, organism-based.
The target in data set [11] is Voltage-gated inwardly rectifying potassium channel KCNH2 (Homo sapiens, UniProt Q12809). As to the kind of experiment: Inhibition of human ERG expressed in HEK cells by patch clamp assay.
Data set [12] addresses T1, Cytochrome P450 3A4. As to the kind of experiment: Inhibition of CYP3A4 in human liver microsomes assessed as reduction in midazolam 1'-hydroxylation by LC-MS/MS method. Format: ADME. In general terms: Liver microsomes are a subcellular fraction often used to study metabolism.
In data set [13] the target is Cytochrome P450 2D6 (Homo sapiens, UniProt P10635). As to the kind of experiment: Inhibition of CYP2D6 in human liver microsomes assessed as reduction in dextromethorphan-O demethylation by LC-MS/MS method. The format is ADME.
The nature of data set [14]: Solubility in Water at pH 4. The format is physicochemical.
The nature of data set [15]: Half life in Wistar rat at 10 mg/kg, po or 1 mg/kg, iv. Format: ADME, organism-based. Conditions: in vivo.
Data set [16] is described as follows: Protein binding in human plasma. Format: ADME, cell-free. Particulars: read-out: PPB.
The nature of data set [17]: Protein binding in rat plasma. Format: ADME, cell-free. Particulars: read-out: PPB (converted).
The test system of data set [18] is Rattus norvegicus. Nature of the data set: Antihypertensive activity in freely moving conscious spontaneously hypertensive rat at assessed as reduction in mean arterial pressure at 10 mg/kg, po administered as single dose in morning at end of wake phase measured after 6 hrs by telemetry. Format: functional, Artery.
Data set [19] relates to Rattus norvegicus. As to the kind of experiment: Antihypertensive activity in freely moving conscious spontaneously hypertensive rat at assessed as time duration for reduction in mean arterial pressure at 10 mg/kg, po administered as single dose in morning at end of wake phase by telemetry. Format: functional, Artery.
Data set [20] deals with Rattus norvegicus. Nature of the data set: Antihypertensive activity in freely moving conscious spontaneously hypertensive rat at assessed as area between curve for reduction in mean arterial pressure at 10 mg/kg, po administered as single dose in morning at end of wake phase by telemetry. The format is functional, Artery.
Data set [21] is described as follows: Oral bioavailability in Wistar rat at 10 mg/kg. Format: ADME, organism-based. Particulars: in vivo.
Data set [22] has as its target T1, Cytochrome P450 3A4. Nature of the data set: Inhibition of CYP3A4 in human liver microsomes assessed as reduction in testosterone 6beta-hydroxylation by LC-MS/MS method. The format is ADME.
Data set [23] in a line: AUC in Wistar rat at 10 mg/kg, po. The format is ADME, organism-based. Conditions: in vivo.
A short description of data set [24]: Solubility in pH 7.0 buffer. The format is physicochemical.
[25] abbreviates: Rattus norvegicus, Wistar, Heart.

Values after ≈ are worked out from the molar mass of the structure shown.

T1 sequence (P08684 whole entry): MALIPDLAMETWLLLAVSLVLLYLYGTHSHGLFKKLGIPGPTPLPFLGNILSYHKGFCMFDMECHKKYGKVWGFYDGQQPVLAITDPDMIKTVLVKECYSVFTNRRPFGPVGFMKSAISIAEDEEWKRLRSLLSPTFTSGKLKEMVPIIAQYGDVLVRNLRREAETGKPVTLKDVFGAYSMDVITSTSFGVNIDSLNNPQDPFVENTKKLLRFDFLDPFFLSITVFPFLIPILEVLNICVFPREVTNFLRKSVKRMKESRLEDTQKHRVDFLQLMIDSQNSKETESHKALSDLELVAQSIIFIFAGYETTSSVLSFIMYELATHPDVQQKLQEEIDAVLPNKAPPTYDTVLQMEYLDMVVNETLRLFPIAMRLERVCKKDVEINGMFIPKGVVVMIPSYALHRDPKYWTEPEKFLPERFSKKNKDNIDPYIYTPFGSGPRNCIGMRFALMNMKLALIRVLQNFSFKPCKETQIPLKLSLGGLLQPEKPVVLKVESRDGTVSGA

What is called EC50 is the concentration that produces a half-maximal response. By IC50 is commonly meant the concentration needed to halve the response being measured. For `CC(C)C(=O)O[C@]1(CCN(C)CCCc2nc3ccccc3[nH]2)C[C@H](OCc2ccccc2)c2cc(F)ccc2[C@@H]1C(C)C`, the concentration for a half-maximal effect (EC50) in [1] (setting [25]) stood at 16 nM. Moreover, the IC50 in data set [2] was determined as 225 nM; in data set [3], 113 nM.

In turn, `CO[C@H]1C[C@@](CCN(C)CCCc2nc3ccccc3[nH]2)(OC(=O)C(C)C)[C@@H](C(C)C)c2ccc(F)cc21` came in with an EC50 in data set [1] (setting [25]) of 40 nM. For the same compound, the concentration for half-maximal inhibition (IC50) in data set [2] was found to be 403 nM; in data set [3], 318 nM.

In data set [1] (setting [25]), `CC(C)C(=O)O[C@]1(CCN(C)CCCc2nc3ccccc3[nH]2)C[C@@H](OCc2ccccc2)c2cc(F)ccc2[C@@H]1C(C)C` returned a 50% effective concentration (EC50) of 20 nM. For the same compound, the figures for the IC50 in [2] and in data set [3] were 156 nM and 132 nM, respectively.

As to `CC(C)C(=O)O[C@]1(CCN(C)CCCc2nc3ccccc3[nH]2)C[C@@H](O)c2cc(F)ccc2[C@@H]1C(C)C`, the EC50 in data set [1] (setting [25]) amounted to 134 nM. Also, the results for the IC50 in data set [2] and in data set [3] were 504 nM and 107 nM, respectively.

For the compound `CC(C)C(=O)O[C@]1(CCN(C)CCCc2nc3ccccc3[nH]2)C[C@H](O)c2cc(F)ccc2[C@@H]1C(C)C`, in data set [1] (setting [25]), the midpoint of the response, the EC50, lay at 38 nM. For the same compound, the results for the concentration for half-maximal inhibition (IC50) in [2] and in [3] were 426 nM and 76 nM, respectively.

Turning to `CC(C)C(=O)O[C@]1(CCN(C)CCCc2nc3ccccc3[nH]2)C[C@@H]2CC[C@H]1c1ccccc12`, the EC50 in [1] was more than 150 nM. For the same compound, the IC50 stood at 699 nM in data set [2] and 350 nM in [3].

Take `CC(C)C(=O)O[C@]1(CCN(C)CCCc2nc3ccccc3[nH]2)C[C@@H]2CCC[C@H]1c1ccccc12`: in data set [1] (setting [25]), the EC50 was found to be 26 nM. In addition, the IC50 in data set [2] was 648 nM; in [3], 225 nM.

As to `CC(C)C(=O)O[C@@]1(CCN(C)CCCc2nc3ccccc3[nH]2)C[C@H]2CC[C@@H]1c1ccccc12`, in data set [1] (setting [25]), the EC50 was 26 nM. Further, the half-maximal inhibitory concentration (IC50) in data set [2] is 424 nM; in [3] it was 398 nM.

In the case of `CC(C)C(=O)O[C@@]1(CCN(C)CCCc2nc3ccccc3[nH]2)C[C@H]2CCC[C@@H]1c1ccccc12`, the response in data set [1] (setting [25]) was half-maximal at 22 nM (EC50). The IC50 in data set [2] turned out to be 455 nM; in [3], 184 nM.

Usually logD stands for the decadic logarithm of the distribution of all forms, ionised or not, between an organic phase and buffer at a given pH. A lower logD goes with lower lipophilicity. What is called solubility is the concentration that dissolves in the medium under given conditions. Read a high solubility as a readily soluble substance. For orientation: Cmax means the maximum level reached in the sampled fluid or tissue. For orientation: half-life means the time in which the quantity being followed falls by half. A lower half-life goes with rapid decline. The bioavailability is the share of a dose that reaches the circulation, judged against a reference dose that is usually intravenous. Read a low bioavailability as little systemic uptake. For orientation: AUC means the area under the concentration-time curve, a measure of exposure. A lower AUC goes with less exposure. As to `COc1cccc2nc(CCCN(C)CC[C@]3(OC(=O)C(C)C)C[C@H]4CCC[C@@H]3c3ccccc34)[nH]c12`, the concentration for half-maximal inhibition (IC50) in data set [4] was 34000 nM; in [8], 32000 nM; in [11], less than 400 nM; in data set [12], 3000 nM; in data set [13] it was 1400 nM; in [2], 387 nM. In addition, the IC50 in data set [3] came out at 84 nM; in data set [22], 5500 nM. In data set [5], the clearance was found to be 58 mL/min/kg. Moreover, the Vd in data set [6] stood at 7.1 L/kg. For the same compound, the pH-dependent lipophilicity (logD) in data set [7] turned out to be 2.7. The EC50 in [1] (setting [25]) amounted to 7 nM. Moreover, the solubility in data set [9] was found to be 681 µg/mL (≈ 1350 µM); in data set [14], 734 µg/mL (≈ 1460 µM); in data set [24], 119 µg/mL (≈ 236 µM). In addition, in [10], the Cmax is 64 ng/mL. In addition, in [15], the half-life was 2.2 h. The fraction unbound in data set [16] was less than 0.001; in data set [17], 0.002. Besides, the Activity in data set [18] is 35 mmHg. Further, the Time in data set [19] worked out at 24 h. In addition, the ABC in [20] amounted to 377 mmHg.hr. The bioavailability in data set [21] came to 7%. The area under the curve (AUC) in [23] came to 198 ng·h/mL.

Turning to `CC(C)C(=O)O[C@]1(CCN(C)CCCc2nc3ccccc3[nH]2)CCc2cc(F)ccc2[C@@H]1C(C)C`, the EC50 in data set [1] (setting [25]) came out at 20 nM. The half-maximal inhibitory concentration (IC50) worked out at 347 nM in data set [2] and 149 nM in data set [3].

Take `COCC(=O)O[C@]1(CCN(C)CCCc2nc3ccccc3[nH]2)CC(C)(C)c2cc(F)ccc2[C@@H]1C(C)C`: the IC50 came to 434 nM in data set [2] and 207 nM in data set [3].

The compound `CCCC[C@@H]1C[C@@](CCN(C)CCCc2nc3ccccc3[nH]2)(OC(=O)COC)[C@@H](C(C)C)c2ccc(F)cc21` yielded an EC50 in [1] (setting [25]) of 23 nM. Moreover, the results for the IC50 in [2] and in data set [3] were 173 nM and 193 nM, respectively.

With `CO[C@@H]1C[C@@](CCN(C)CCCc2nc3ccccc3[nH]2)(OC(=O)C(C)C)[C@@H](C(C)C)c2ccc(F)cc21`, in data set [1] (setting [25]), the half-maximal effective concentration (EC50) turned out to be 29 nM. Besides, the IC50 in data set [2] came to 588 nM; in data set [3] it was 557 nM.

On to `COCC(=O)O[C@]1(CCN(C)CCCc2nc3ccccc3[nH]2)C[C@@H]2CC[C@H]1c1ccccc12` (racemic), for which the EC50 in data set [1] (setting [25]) amounted to 250 nM. The figures for the 50% inhibitory concentration (IC50) in data set [2] and in [3] were 748 nM and 361 nM, respectively.

`CC(C)C(=O)O[C@]1(CCN(C)CCCc2nc3ccccc3[nH]2)C[C@@H]2CC[C@H]1c1ccccc12` (racemic): the EC50 in [1] is 42 nM. For the same compound, the IC50 in [2] was found to be 533 nM; in data set [3] it was 432 nM.

For the compound `CN(CCCc1nc2ccccc2[nH]1)CC[C@@]1(OC(=O)C2CC2)C[C@@H]2CC[C@H]1c1ccccc12` (racemic), the concentration for a half-maximal effect (EC50) in data set [1] (setting [25]) worked out at 77 nM. The concentration for half-maximal inhibition (IC50) in data set [2] was found to be 140 nM; in [3], 210 nM.

`CC(C)C(=O)O[C@]1(CCN(C)CCCc2nc3ccccc3[nH]2)C[C@@H]2CCC[C@H]1c1ccccc12` (racemic) displayed a concentration for a half-maximal effect (EC50) in data set [1] of 39 nM. The IC50 in data set [2] came out at 437 nM; in data set [3], 217 nM.

`CO[C@]1(CCN(C)CCCc2nc3ccccc3[nH]2)C[C@@H]2CC[C@H]1c1ccccc12` (racemic) showed an EC50 in data set [1] (setting [25]) of more than 300 nM. Also, the results for the 50% inhibitory concentration (IC50) in [2] and in data set [3] were 2670 nM and 224 nM, respectively.

As for `CC(C)C(=O)O[C@]1(CCN(C)CCCc2nc3ccccc3[nH]2)C[C@@H]2CC[C@H]1c1nccnc12` (racemic), the concentration giving a half-maximal response (EC50) in data set [1] (setting [25]) was more than 1000 nM. Besides, the IC50 is more than 4600 nM in data set [2] and 2070 nM in data set [3].

With `COCC(=O)O[C@]1(CCN(C)CCCc2nc3ccccc3[nH]2)CCc2cc(F)ccc2[C@@H]1C(C)C` [MIBEFRADIL], the midpoint of the response in data set [1] (setting [25]), the EC50, lay at 26 nM. Further, the Activity in data set [18] stood at 32 mmHg. For the same compound, the ABC in data set [20] came out at 437 mmHg.hr.
